The source of these data is patent US8129371B2, “Thienopyrimidine and pyrazolopyrimidine compounds and their use as mTOR kinase and PI3 kinase inhibitors” (Wyeth LLC, priority 2007, dated 2012).

Molecules are shown by their SMILES.

The target of assay [1] is T1, PI3K (Homo sapiens, UniProt P42336).
T1 construct: PI3 Kinase α IC50; other: PI3 Kinase α; other: PI3 Kinase α isoform, fluorescence polarization
The assay can be described thus: Fluorescence polarization assay for PI3K. The class given is biochemical. Conditions: PI3 Kinase α; read-out: PI3 Kinase α IC50. Put shortly:
(§1)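 Fluorescence-polarization competition readout: after 30–60 min of PIP2/ATP turnover in 1% DMSO, a stop mix with GST-GRP (70 nM) and red probe (10 nM) was added.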
For orientation: Polarisation of emitted light reports the rotation of a fluorescent probe.

Assay [2] concerns the target T2, PI3K (Homo sapiens, UniProt P48736).
T2 construct: PI3 Kinase γ IC50; other: PI3 Kinase γ; other: PI3 Kinase γ isoform, fluorescence polarization
The experiment in a line: Fluorescence polarization assay for PI3K. To be noted: PI3 Kinase γ; read-out: PI3 Kinase γ IC50. The class given is biochemical. Put shortly: as §1

Another assay addresses T3, Human mTOR (FLAG-TOR) (Homo sapiens, UniProt P42345).
T3 construct: FLAG
The experiment in a line: Human mTOR kinase assay with purified enzyme, DELFIA format. The class given is biochemical. Put shortly:
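DELFIA readout: Eu-anti-P(T389)-S6K antibody (40 ng/mL, 1 h) on captured His6-S6K from the stopped reaction. Kinase step used purified FLAG-tagged human mTOR with test compound in HEPES (pH 7.4)/MnCl2/DTT buffer, 2 h at room temperature (linear 1–6 h), terminated by EDTA/EGTA.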

A further assay concerns breast line MDA468. The experiment in a line: In vitro cell culture growth assay (MTS), MDA468. The class given is cell-based. Conditions: Homo sapiens, 72 h, MDA468 cells, three days after drug treatment. Put shortly: (§2)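 Plate cells; add inhibitors on day 1; after 3 days' treatment, add MTS; read A490; express as percent growth of vehicle-treated control.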
The next assay concerns prostate line LNCap. The experiment in a line: In vitro cell culture growth assay (MTS), LNCap. In kind it is cell-based. Conditions: Homo sapiens, LNCaP, 72 h, LNCap cells, three days after drug treatment. The procedure, abridged: as §2

T1 sequence (P42336 whole entry, canonical isoform): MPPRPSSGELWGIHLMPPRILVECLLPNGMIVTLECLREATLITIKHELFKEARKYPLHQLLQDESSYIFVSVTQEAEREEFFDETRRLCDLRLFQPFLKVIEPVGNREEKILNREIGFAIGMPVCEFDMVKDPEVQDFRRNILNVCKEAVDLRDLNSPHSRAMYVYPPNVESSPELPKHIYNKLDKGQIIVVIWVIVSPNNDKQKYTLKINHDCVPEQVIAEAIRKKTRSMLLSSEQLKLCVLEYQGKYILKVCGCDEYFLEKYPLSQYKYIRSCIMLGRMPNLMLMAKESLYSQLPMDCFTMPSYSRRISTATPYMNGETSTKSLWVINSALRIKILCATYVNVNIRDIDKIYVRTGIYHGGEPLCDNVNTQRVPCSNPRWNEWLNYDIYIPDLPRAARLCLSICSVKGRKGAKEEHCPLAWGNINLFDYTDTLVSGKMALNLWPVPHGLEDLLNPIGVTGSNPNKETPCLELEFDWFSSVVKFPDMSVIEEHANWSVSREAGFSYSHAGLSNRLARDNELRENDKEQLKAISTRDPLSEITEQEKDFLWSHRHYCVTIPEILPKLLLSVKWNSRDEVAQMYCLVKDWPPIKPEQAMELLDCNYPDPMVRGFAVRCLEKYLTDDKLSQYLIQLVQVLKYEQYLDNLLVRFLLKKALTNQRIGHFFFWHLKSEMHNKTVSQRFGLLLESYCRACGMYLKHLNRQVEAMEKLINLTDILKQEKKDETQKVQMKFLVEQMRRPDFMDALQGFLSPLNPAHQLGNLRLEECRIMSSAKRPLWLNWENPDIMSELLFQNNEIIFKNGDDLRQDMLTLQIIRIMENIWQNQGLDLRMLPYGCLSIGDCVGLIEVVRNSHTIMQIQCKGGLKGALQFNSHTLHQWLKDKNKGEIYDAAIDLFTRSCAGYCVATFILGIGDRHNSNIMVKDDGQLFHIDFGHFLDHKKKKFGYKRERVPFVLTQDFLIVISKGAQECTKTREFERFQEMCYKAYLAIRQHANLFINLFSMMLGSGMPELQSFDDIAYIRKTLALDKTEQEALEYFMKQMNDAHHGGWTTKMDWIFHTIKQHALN
T2 sequence (P48736 whole entry, canonical isoform): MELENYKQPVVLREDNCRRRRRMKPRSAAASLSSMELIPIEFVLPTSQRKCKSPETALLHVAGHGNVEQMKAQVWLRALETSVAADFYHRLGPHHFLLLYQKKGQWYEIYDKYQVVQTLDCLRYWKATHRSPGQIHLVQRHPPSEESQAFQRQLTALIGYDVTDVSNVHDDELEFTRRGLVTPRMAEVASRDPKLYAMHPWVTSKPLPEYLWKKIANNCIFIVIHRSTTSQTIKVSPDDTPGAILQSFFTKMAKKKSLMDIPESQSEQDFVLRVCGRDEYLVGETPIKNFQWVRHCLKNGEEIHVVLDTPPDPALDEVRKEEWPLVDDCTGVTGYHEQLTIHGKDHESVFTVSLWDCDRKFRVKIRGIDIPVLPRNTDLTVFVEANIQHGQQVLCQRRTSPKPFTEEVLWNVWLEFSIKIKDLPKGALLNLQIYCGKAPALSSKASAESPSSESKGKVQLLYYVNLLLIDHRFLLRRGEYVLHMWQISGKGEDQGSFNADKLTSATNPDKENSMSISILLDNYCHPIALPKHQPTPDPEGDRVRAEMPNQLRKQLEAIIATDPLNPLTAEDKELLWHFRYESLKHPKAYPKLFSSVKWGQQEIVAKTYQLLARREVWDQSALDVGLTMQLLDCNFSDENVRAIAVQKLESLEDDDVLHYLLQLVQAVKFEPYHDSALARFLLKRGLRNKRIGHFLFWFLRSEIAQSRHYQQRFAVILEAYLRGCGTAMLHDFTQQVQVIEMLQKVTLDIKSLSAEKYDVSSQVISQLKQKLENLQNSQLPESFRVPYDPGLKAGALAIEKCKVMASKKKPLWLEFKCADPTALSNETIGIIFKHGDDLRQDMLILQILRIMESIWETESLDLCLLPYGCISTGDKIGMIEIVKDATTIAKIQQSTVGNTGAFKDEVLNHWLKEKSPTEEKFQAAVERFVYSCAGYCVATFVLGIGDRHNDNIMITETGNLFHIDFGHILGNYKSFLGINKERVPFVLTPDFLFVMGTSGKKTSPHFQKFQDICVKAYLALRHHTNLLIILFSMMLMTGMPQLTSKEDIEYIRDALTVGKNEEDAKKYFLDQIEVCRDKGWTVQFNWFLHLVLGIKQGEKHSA

In general, IC50 refers to the concentration at which inhibition is half-maximal. Regarding `O=C(Nc1ccc(-c2nc(N3CC4CCC(C3)O4)c3cnn(C4CCN(Cc5cccnc5)CC4)c3n2)cc1)Nc1cccnc1` [Example 18, 1-(4-{4-(8-oxa-3-azabicyclo[3.2.1]oct-3-yl)-1-[1-(pyridin-3-ylmethyl)piperidin-4-yl]-1H-pyrazolo[3,4-d]pyrimidin-6-yl}phenyl)-3-pyridin-3-ylurea], the IC50 is 0.326 µM at PI3K [1]; 3.48 µM on PI3K [2]; 0.00025 µM on Human mTOR (FLAG-TOR); < 0.0008 µM in the assay on breast line MDA468; < 0.0008 µM in the assay on prostate line LNCap.
Turning to `O=C(Nc1ccncc1)Nc1ccc(-c2nc(N3CC4CCC(C3)O4)c3cnn(C4CCN(Cc5cccnc5)CC4)c3n2)cc1` [Example 19, 1-(4-{4-(8-oxa-3-azabicyclo[3.2.1]oct-3-yl)-1-[1-(pyridin-3-ylmethyl)piperidin-4-yl]-1H-pyrazolo[3,4-d]pyrimidin-6-yl}phenyl)-3-pyridin-4-ylurea], the IC50 at PI3K [1] was 0.223 µM; at PI3K [2] it was 0.391 µM; on Human mTOR (FLAG-TOR), 0.00014 µM; in the assay with breast line MDA468, < 0.0008 µM; with prostate line LNCap, < 0.0008 µM.
As to `CCNC(=O)Nc1ccc(-c2nc(N3CC4CCC(C3)O4)c3cnn(C4CCN(C(=O)OC(C)(C)C)CC4)c3n2)cc1` [Example 20, tert-butyl4-[6-{4-[(ethylcarbamoyl)amino]phenyl}-4-(8-oxa-3-azabicyclo[3.2.1]oct-3-yl)-1H-pyrazolo[3,4-d]pyrimidin-1-yl]piperidine-1-carboxylate], the 50% inhibitory concentration (IC50) at PI3K [1] was 2.35 µM; on PI3K [2], > 10 µM; on Human mTOR (FLAG-TOR) it was 0.00047 µM; in the assay on breast line MDA468 it was 0.098 µM; with prostate line LNCap, 0.027 µM.
In the same order, the values of `CC(C)(C)OC(=O)N1CCC(n2ncc3c(N4CC5CCC(C4)O5)nc(-c4ccc(NC(=O)NCCF)cc4)nc32)CC1` [Example 21, tert-butyl 4-[6-(4-{[(2-fluoroethyl)carbamoyl]amino}phenyl)-4-(8-oxa-3-azabicyclo[3.2.1]oct-3-yl)-1H-pyrazolo[3,4-d]pyrimidin-1-yl]piperidine-1-carboxylate] are 3.96 µM, 11 µM, 0.00024 µM, 0.12 µM and 0.012 µM.
Taken in the same sequence, the figures for `CC(C)(C)OC(=O)N1CCC(n2ncc3c(N4CC5CCC(C4)O5)nc(-c4ccc(NC(=O)NC5CC5)cc4)nc32)CC1` [Example 22, tert-butyl 4-[6-{4-[(cyclopropylcarbamoyl)amino]phenyl}-4-(8-oxa-3-azabicyclo[3.2.1]oct-3-yl)-1H-pyrazolo[3,4-d]pyrimidin-1-yl]piperidine-1-carboxylate] were 3.85 µM, > 10 µM, 0.00056 µM, 0.15 µM and 0.027 µM.
In the same order, the values of `CC(C)(C)OC(=O)N1CCC(n2ncc3c(N4CC5CCC(C4)O5)nc(-c4ccc(NC(=O)Nc5ccccc5)cc4)nc32)CC1` [Example 23, tert-butyl 4-[4-(8-oxa-3-azabicyclo[3.2.1]oct-3-yl)-6-{4-[(phenylcarbamoyl)amino]phenyl}-1H-pyrazolo[3,4-d]pyrimidin-1-yl]piperidine-1-carboxylate] are 0.888 µM, > 10 µM, 0.0007 µM, 0.18 µM and 0.04 µM.
For `CC(C)(C)OC(=O)N1CCC(n2ncc3c(N4CC5CCC(C4)O5)nc(-c4ccc(NC(=O)Nc5cccnc5)cc4)nc32)CC1` [Example 24, tert-butyl 4-[4-(8-oxa-3-azabicyclo[3.2.1]oct-3-yl)-6-{4-[(pyridin-3-ylcarbamoyl)amino]phenyl}-1H-pyrazolo[3,4-d]pyrimidin-1-yl]piperidine-1-carboxylate], the IC50 at PI3K [1] was determined as 0.629 µM; on PI3K [2], 6.3 µM; at Human mTOR (FLAG-TOR), 0.00039 µM; in the assay on breast line MDA468, 0.018 µM; in the assay on prostate line LNCap it was 0.007 µM.
